Assays:
[1] = test system: patients with angina pectoris treated with β-blockers; experiment: heart rate at rest in clinical study; type: in vivo, human; details: after 4 months of treatment; heart rate at rest on entry 67±7 beats per minute
Method: (§1) The patients selected for this clinical study are men and women from 18 to 75 years of age who have suffered from angina pectoris for at least 3 months and been treated with β-blockers such as atenolol (50 mg o.d.) or any other β-blocker at an equivalent dose for at least 3 months. These patients have, despite their treatment, a positive exercise tolerance test (ETT) and daily symptoms of angina pectoris.
(§2) This double-blind, parallel-group, international clinical study was carried out in 889 patients. The patients, all of whom are receiving atenolol, are randomised into two groups: • in addition to the β-blocker, the first group is given ivabradine (hydrochloride) at a dose of 5 mg twice a day for two months and then at a dose of 7.5 mg twice a day for a further two months; • in addition to the β-blocker, the second group is given a placebo for 4 months.
The patients have a mean age of 60±8 years. On entry into the study, the mean systolic/diastolic arterial pressure and heart rate of the patients at rest are respectively, on average: 127±12/78±7 mmHg and 67±7 beats per minute. After 4 months of treatment with the association, the heart rate has reduced by 9±10 bpm (β-blocker+placebo 1±10 bpm).

[2] = test system: patients with angina pectoris treated with β-blockers; experiment: treadmill exercise tolerance test (ETT), Bruce protocol, clinical study; type: in vivo, human
Method: as §1, §2
The patients are subjected to a treadmill exercise tolerance test (ETT) in accordance with the Bruce protocol before ivabradine is administered (that is when receiving β-blocker on its own), and after 4 months of treatment with the association between ivabradine and atenolol. The principal parameters measured in the course of the effort test are: • total exercise duration (TED)—the TED includes the time taken for the treadmill to come to a stop or, that is, a duration of about 10 seconds starting from the patient's request to stop the exercise; • the time until the “angina pectoris” pain forces the patient to stop the exercise (TLA); • the time until the onset of the “angina pectoris” pain (TAO); • the time taken for a 1 mm ST segment depression (TST) to appear on the electrocardiographic recording, this being a reflection of ischaemia and corresponding to the electrical sign of pain in the cardiac muscle.
These measurements are made at trough activity of the association of active ingredients or, that is, 12±1 hours and 24±2 hours after administration of the active ingredients.
The mean improvements in the various parameters measured during the treadmill exercise test, between the value measured before the start of treatment with ivabradine and the end of the treatment period, are set out in the table below: […]

[3] = mean ± SD, before ivabradine vs after 4 months of treatment, on top of atenolol, at trough activity

| SMILES | reduction of heart rate [1] | Improvement in time taken for a 1 mm ST segment depression (TST) [2, 3] | Improvement in time until angina pectoris pain forces the patient to stop the exercise (TLA) [2, 3] | Improvement in time until onset of angina pectoris pain (TAO) [2, 3] | Improvement in total exercise duration (TED) ([2]; mean ± SD, before ivabradine vs after 4 months of treatment, on top of atenolol, ivabradine 5 mg b.i.d. 2 months then 7.5 mg b.i.d. 2 months, at trough activity) | exercise tolerance ([2]; patients already receiving a standard dose of β-blockers) |
| --- | --- | --- | --- | --- | --- | --- |
| CC(C)NCC(O)COc1ccc(CC(N)=O)cc1 (stereo not drawn) [β-blocker + placebo, atenolol] | 1±10 bpm | 15 ± 87 s | 9 ± 64 s | 23 ± 79 s | 8 ± 64 s |  |
| COc1cc2c(cc1OC)CC(=O)N(CCCN(C)C[C@H]1Cc3cc(OC)c(OC)cc31)CC2 [ivabradine, 3-{3-[{[(7S)-3,4-dimethoxybicyclo[4.2.0]octa-1,3,5-trien-7-yl]methyl}(methyl)amino]propyl}-7,8-dimethoxy-1,3,4,5-tetrahydro-2H-3-benzazepin-2-one] |  |  |  |  |  | capable of improving exercise tolerance |
